Like-named read-outs stand apart in the source and are kept apart here.
Legend:
[1] = test system: Key Grass and Sedge Weeds as well as Grass Crops; assay: Post-emergent Test II herbicidal activity (Table 6); type: in vivo; details: post-emergence, 336 h; for pest or weed control at 70 g/ha: application rate 70 g ai/ha; for pest or weed control at 140 g/ha: application rate 140 g ai/ha
Method in brief: (§1)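 Test species were raised 7–21 d under greenhouse conditions until reaching the first or second true leaf, sprayed with formulated compound at 187 L/ha, and kept subirrigated to avoid wash-off. Fourteen days later, damage was rated visually on a 0–100% scale against untreated plants.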

[2] = test system: Key Broadleaf Weed and Crop Species; assay: Post-emergent Test II herbicidal activity (Table 5); type: in vivo; details: post-emergence, 336 h, post-emergent, 14 days after application; for pest or weed control at 70 g/ha: 70 g ai/ha; for pest or weed control at 140 g/ha: 140 g ai/ha
Method in brief: as §1

[3] = Triticum aestivum, TRZSS (wheat), read-out: Visual Growth Reduction (%) 14 Days After Application, TRZSS
[4] = CYPES: yellow nutsedge (Cyperus esculentus), read-out: Visual Growth Reduction (%) 14 Days After Application, CYPES
[5] = DIGSA: crabgrass (Digitaria sanguinalis), read-out: Visual Growth Reduction (%) 14 Days After Application, DIGSA
[6] = ECHCG: barnyardgrass (Echinochloa crus-galli), read-out: Visual Growth Reduction (%) 14 Days After Application, ECHCG
[7] = ORYSA: rice (Oryza sativa), read-out: Visual Growth Reduction (%) 14 Days After Application, ORYSA
[8] = SETFA: giant foxtail (Setaria faberi), read-out: Visual Growth Reduction (%) 14 Days After Application, SETFA
[9] = SORVU: grain sorghum (Sorghum vulgare), read-out: Visual Growth Reduction (%) 14 Days After Application, SORVU
[10] = ZEAMX: maize, corn (Zea mays), read-out: Visual Growth Reduction (%) 14 Days After Application, ZEAMX
[11] = ABUTH: velvetleaf (Abutilon theophrasti), read-out: Visual Growth Reduction (%) 14 Days After Application ABUTH
[12] = AMARE: redroot pigweed (Amaranthus retroflexus), read-out: Visual Growth Reduction (%) 14 Days After Application AMARE
[13] = BRSNN: oilseed-rape, canola (Brassica napus), read-out: Visual Growth Reduction (%) 14 Days After Application BRSNN
[14] = CHEAL: lambsquarters (Chenopodium album), read-out: Visual Growth Reduction (%) 14 Days After Application CHEAL
[15] = EPHHL: wild poinsettia (Euphorbia heterophylla), read-out: Visual Growth Reduction (%) 14 Days After Application EPHHL
[16] = HELAN: sunflower (Helianthus annuus), read-out: Visual Growth Reduction (%) 14 Days After Application HELAN
[17] = VIOTR: wild pansy (Viola tricolor), read-out: Visual Growth Reduction (%) 14 Days After Application VIOTR

Structure (SMILES) | pest or weed control at 70 g/ha [1, 3] | pest or weed control at 140 g/ha [1, 3] | pest or weed control at 70 g/ha [1, 4] | pest or weed control at 140 g/ha [1, 4] | pest or weed control at 70 g/ha [1, 5] | pest or weed control at 140 g/ha [1, 5] | pest or weed control at 70 g/ha [1, 6] | pest or weed control at 140 g/ha [1, 6] | pest or weed control at 70 g/ha [1, 7] | pest or weed control at 140 g/ha [1, 7] | pest or weed control at 70 g/ha [1, 8] | pest or weed control at 140 g/ha [1, 8] | pest or weed control at 70 g/ha [1, 9] | pest or weed control at 140 g/ha [1, 9] | pest or weed control at 70 g/ha [1, 10] | pest or weed control at 140 g/ha [1, 10] | pest or weed control at 70 g/ha [2, 11] | pest or weed control at 140 g/ha [2, 11] | pest or weed control at 70 g/ha [2, 12] | pest or weed control at 140 g/ha [2, 12] | further results
COC(=O)c1nc(-c2ccc(Br)c(F)c2)cc(N)c1Cl [Compound 115, methyl 4-amino-6-(4-bromo-3-fluorophenyl)-3-chloropicolinate] | 0 to 29% | 0 to 29% | 95 to 100% | 95 to 100% | 85 to 94% | 85 to 94% | 85 to 94% | 85 to 94% | 0 to 29% | 0 to 29% | 0 to 29% | 0 to 29% | 85 to 94% | 95 to 100% | 0 to 29% | 0 to 29% | 85 to 94% | 85 to 94% | 95 to 100% | 95 to 100% | pest or weed control at 70 g/ha [2, 13]: 60 to 74%; pest or weed control at 140 g/ha [2, 13]: 75 to 84%; pest or weed control at 70 g/ha [2, 14]: 95 to 100%; pest or weed control at 140 g/ha [2, 14]: 95 to 100%; pest or weed control at 70 g/ha [2, 15]: 95 to 100%; pest or weed control at 140 g/ha [2, 15]: 95 to 100%; pest or weed control at 70 g/ha [2, 16]: 85 to 94%; pest or weed control at 140 g/ha [2, 16]: 95 to 100%; pest or weed control at 70 g/ha [2, 17]: 95 to 100%; pest or weed control at 140 g/ha [2, 17]: 95 to 100%
COc1c(N)nc(-c2ccc(Br)c(F)c2)nc1C(=O)O [Compound 113, 6-Amino-2-(4-bromo-3-fluorophenyl)-5-methoxypyrimidine-4-carboxylic acid] | 60 to 74% | 75 to 84% | 95 to 100% | 95 to 100% | 75 to 84% | 75 to 84% | 85 to 94% | 85 to 94% | 30 to 44% | 60 to 74% | 75 to 84% | 75 to 84% | 85 to 94% | 85 to 94% | 85 to 94% | 85 to 94% | 85 to 94% | 85 to 94% | 95 to 100% | 95 to 100% | pest or weed control at 70 g/ha [2, 13]: 95 to 100%; pest or weed control at 140 g/ha [2, 13]: 95 to 100%; pest or weed control at 70 g/ha [2, 14]: 95 to 100%; pest or weed control at 140 g/ha [2, 14]: 95 to 100%; pest or weed control at 70 g/ha [2, 15]: 95 to 100%; pest or weed control at 140 g/ha [2, 15]: 95 to 100%; pest or weed control at 70 g/ha [2, 16]: 95 to 100%; pest or weed control at 140 g/ha [2, 16]: 95 to 100%; pest or weed control at 70 g/ha [2, 17]: 95 to 100%; pest or weed control at 140 g/ha [2, 17]: 95 to 100%

From patent publication US9113629B2, “4-amino-6-(4-substituted-phenyl)-picolinates and 6-amino-2-(4-substituted-phenyl)-pyrimidine-4-carboxylates and their use as herbicides” (DOW AGROSCIENCES LLC, priority 2013, dated 2015)
